Test results published in US20240252463A1, “METHODS OF TREATING FIBROTIC PATHOLOGIES” (Mayo Foundation for Medical Education and Research, priority 2018, published 2024).
Where a name gives a salt, the structure may show the parent alone. Read-outs that look alike come from different tables or passages of the source.

Assays:
αSMA = αSMA intensity (fibroblast activation) in IPF patient-derived lung fibroblasts + TGFβ; format: cell-based, human; details: 1 μM + TGFβ, treated for 72 hours; for activity at 1 µM: Homo sapiens, SMA
Protocol: (§1) ImmunofluorescenceMicroscopy: Cells were plated into 96 well plates (Corning 3603) in their specific growth media and allowed to attach (8 hours). Media was then exchanged for the indicated conditions for each experiment. Cells were fixed in 3.7% formalin (Sigma-Aldrich), permeabilized in 0.25% Triton X-100 (Sigma-Aldrich) and then blocked with 1% BSA for 1 h. Cells or tissue sections were incubated overnight with mouse monoclonal antibody against αSMA (Sigma-Aldrich F3777), and/or a rabbit monoclonal antibody against YAP/TAZ (Cell Signaling D24E4) diluted 1:200 in PBS with 1% BSA. Cells were then washed and exposed to flourescence-conjugated secondary antibodies (Invitrogen) diluted 1:1000 and DAPI (Thermo Fisher Scientific). Images were taken with a Cytation5 (BioTek) microscope. For scoring αSMA positive cells (FIG. 3b), an observer blinded to the treatment conditions counted αSMA-positive cells using a visual threshold for bright fibrous staining; a minimum of 200 cells was counted for each condition. YAP/TAZ localization was quantified (FIG. 2, 6, 8) using Gen5 (Biotek) software. Images were taken at 4× magnification of both DAPI and YAP/TAZ staining. […] Quantification of double positive (YAP/TAZ and αSMA) cells from lung tissue sections (FIG. 4d) was performed similarly; however separate thresholds were established for both YAP/TAZ and αSMA. A minimum of 4000 cells was quantified for each mouse.

YAP/TAZ = YAP/TAZ nuclear localization (immunofluorescence, automated imaging) in IPF patient-derived lung fibroblasts; format: cell-based, human; details: 10 μM, treated 2 hours prior to fixation; for Nuclear localization (% of total cells) IPF-1: patient sample IPF-1; for Nuclear localization (% of total cells) IPF-2: patient sample IPF-2; for Nuclear localization (% of total cells) IPF-3: patient sample IPF-3; for Nuclear localization (% of total cells) IPF-4: patient sample IPF-4
Protocol: 27A. […] IPF patient-derived lung fibroblasts cells treated 2 hours prior to fixation with diverse dopaminergic agonists (10 μM). N=4 different patient samples. % nuclear localization of YAP/TAZ was determined using automated imaging software. Scale bar represents 100 μm. 27C. cAMP measured in IPF patient-derived fibroblasts treated for 20 minutes with DHX. N=3. 27E.
as §1

[1] = patient sample IPF-1, read-out: αSMA intensity (% of DMSO control) IPF-1
[2] = patient sample IPF-2, read-out: αSMA intensity (% of DMSO control) IPF-2
[3] = patient sample IPF-3, read-out: αSMA intensity (% of DMSO control) IPF-3
[4] = patient sample IPF-4, read-out: αSMA intensity (% of DMSO control) IPF-4

Row | SMILES | αSMA intensity (% of DMSO control) IPF-1 (αSMA; patient sample IPF-1) | αSMA intensity (% of DMSO control) IPF-2 (αSMA; patient sample IPF-2) | αSMA intensity (% of DMSO control) IPF-3 (αSMA; patient sample IPF-3) | αSMA intensity (% of DMSO control) IPF-4 (αSMA; patient sample IPF-4) | Nuclear localization (% of total cells) IPF-1 (YAP/TAZ) | Nuclear localization (% of total cells) IPF-2 (YAP/TAZ) | Nuclear localization (% of total cells) IPF-3 (YAP/TAZ) | Nuclear localization (% of total cells) IPF-4 (YAP/TAZ) | activity at 1 µM (αSMA; [1]) [%] | activity at 1 µM (αSMA; [2]) [%] | activity at 1 µM (αSMA; [3]) [%] | activity at 1 µM (αSMA; [4]) [%]
1 | CCCN(CCc1ccccc1)C1CCc2c(O)cccc2C1.Cl (racemic) [(±)-2-(N-phenylethyl-N-propyl)amino-5-hydroxytetralin] | 65.43 % of DMSO control | 52.77 % of DMSO control | 60.4844 % of DMSO control | 51.1 % of DMSO control | 68.85 % of total cells | 60.86 % of total cells | 68 % of total cells | 56.552 % of total cells |  |  |  | 
2 | CCCN1CCO[C@@H]2c3cc(O)ccc3OC[C@H]21.Cl (racemic) [(±)-PD 128,907•HCl] | 83.68 % of DMSO control | 85.45 % of DMSO control | 94.2538 % of DMSO control | 75.15 % of DMSO control | 60.13 % of total cells | 49.54 % of total cells | 78.48 % of total cells | 60.66 % of total cells |  |  |  | 
3 | C=CCN1CCc2c(cc(O)c(O)c2Cl)C(c2ccccc2)C1 (racemic) [(±)-SKF-82958•HBr] |  |  |  |  | 29.15 % of total cells | 38 % of total cells | 38 % of total cells | 12.29 % of total cells | 11.8 | 4.97 | 2.43 | 9.33
4 | NCCc1cccc(O)c1 [3-Hydroxyphenethylamine•HCl, 3-Hydroxyphenethylamine] |  |  |  |  | 48.96 % of total cells | 56.92 % of total cells | 69.25 % of total cells | 58.37 % of total cells | 88.6 | 96.7 | 82.6 | 99.8
5 | NCCc1ccc(O)cc1 [4-Hydroxyphenethylamine•HCl, 4-Hydroxyphenethylamine] |  |  |  |  |  |  |  |  | 99.7 | 93.4 | 95.7 | 88.3
6 | Br.NC1CCc2cc(O)c(O)cc2C1 (centres unmarked) [6,7-ADTN•HBr, 6,7-ADTN] | 37.14 % of DMSO control | 4.182 % of DMSO control | 9.909 % of DMSO control | 4.888 % of DMSO control | 43.89 % of total cells | 44 % of total cells | 65.5 % of total cells | 52.65 % of total cells |  |  |  | 
7 | CCCN(CCC)[C@@H]1CCc2c(OC)cccc2[C@@H]1C.O=C(O)/C=C\C(=O)O [(+)-UH 232 maleate] | 82.91 % of DMSO control | 63.85 % of DMSO control | 85.81 % of DMSO control | 65.71 % of DMSO control | 61.9521 % of total cells | 68 % of total cells | 71.85 % of total cells | 67.27 % of total cells |  |  |  | 
8 | NC[C@@H]1O[C@H](C23CC4CC(CC(C4)C2)C3)Cc2c1ccc(O)c2O [A-77636•HCl•H2O] |  |  |  |  | 26.46 % of total cells | 30.88 % of total cells | 41.33 % of total cells | 37.79 % of total cells | 5.81 | 0.719 | 0.0677 | 12.4
9 | C=CCN1CCc2nc(N)sc2CC1.Cl.Cl [B-HT 920•2HCl] | 74.98 % of DMSO control | 58.97 % of DMSO control | 70.12 % of DMSO control | 54.23 % of DMSO control | 75.68 % of total cells | 46.9 % of total cells | 64.79 % of total cells | 76.24 % of total cells |  |  |  | 
10 | CC(C)C[C@H]1C(=O)N2CCC[C@H]2[C@]2(O)O[C@](NC(=O)[C@@H]3C=C4c5cccc6[nH]c(Br)c(c56)C[C@H]4N(C)C3)(C(C)C)C(=O)N12 [Bromocriptine mesylate, Bromocriptine] |  |  |  |  |  |  |  |  | 54.1 | 53.6 | 61.1 | 34.1
11 | CN1Cc2ccccc2C2c3cccc4[nH]cc(c34)CC21 (centres unmarked) [CY 208-243] |  |  |  |  | 20.52 % of total cells | 39.79 % of total cells | 41.17 % of total cells | 19.82 % of total cells | 21 | 2.28 | 2.61 | 9.64
12 | C=CCN1C[C@H](C(=O)N(CCCN(C)C)C(=O)NCC)C[C@@H]2c3cccc4[nH]cc(c34)C[C@H]21 [Cabergoline] |  |  |  |  |  |  |  |  | 76.9 | 48.1 | 77.1 | 45.8
13 | CN1C[C@@H](NS(=O)(=O)N(C)C)C[C@@H]2c3cccc4c3c(cn4C)C[C@H]21 [Mesulergine•HCl, Mesulergine] |  |  |  |  |  |  |  |  | 35.5 | 23.3 | 40 | 19.8
14 | CCCN1C[C@H](CSC)C[C@@H]2c3cccc4[nH]cc(c34)C[C@H]21 [Pergolide mesylate, Pergolide] |  |  |  |  |  |  |  |  | 65 | 51.6 | 63.6 | 48.1
15 | c1cnc(N2CCN(Cc3ccc4c(c3)OCO4)CC2)nc1 [Piribedil•2HCl, Piribedil] |  |  |  |  |  |  |  |  | 70.4 | 61.5 | 71.5 | 41.2
16 | CCCN[C@H]1CCc2nc(N)sc2C1 [Pramipexole Dihydrochloride Monohydrate, Pramipexole] |  |  |  |  |  |  |  |  | 87.6 | 73.2 | 82.8 | 89.9
17 | CCCN(CCC)CCc1cccc2c1CC(=O)N2 [Ropinirole HCl, Ropinirole] |  |  |  |  |  |  |  |  | 72.2 | 53.5 |  | 62
18 | Oc1cc2c(cc1O)[C@@H](c1ccccc1)CNCC2 [SKF 38393•HBr] |  |  |  |  |  |  |  |  | 37.1 | 26.8 | 31.2 | 20.8
